Test results published in patent publication US5814600A, “Method and composition for treatment of insulin requiring mammals” (Amylin Pharmaceuticals Inc., priority 1994, dated 1998).
Like-named read-outs stand apart in the source and are kept apart here.

Legend:
rat soleus muscle = type: cell-based
Protocol: Male Harlan Sprague Dawley rats of approximately 200 g mass were used in order to maintain soleus muscle mass less than 40 mg. The animals were fasted for 4 hours prior to sacrifice by decapitation. The skin was stripped from the lower limb which was then pinned out on cork board. The tendo achilles was cut just above os […]. gastrocnemius reflected out from the posterior aspect of the tibia. M. soleus, a small […], 0.55 mm thick flat muscle on the bone surface of m. gastrocnemius was then stripped clear and the perimysium cleaned off using fine scissors and forceps. M. soleus was then split into equal parts using a blade passed antero-posteriorly through the belly of the muscle to obtain a total of 4 muscle strips from each animal. After dissecting the muscle from the animal, it was kept for a short period in physiological saline. The muscle was not held under tension, as reported in other methodologies since in our hands this had no demonstrable effect on the insulin-sensitivity of radioglucose incorporation into glycogen. Muscles were added to 50 mL Erlenmeyer flasks containing 10 mL of a pregassed Krebs-Ringer bicarbonate buffer containing (mM) NaCl 118.5; KCl 5.94; CaCl2 2.54; MgSO4 1.19; KH2 PO4 1.19; NaHCO3 25; glucose 5.5; and recombinant human insulin (Humulin-R, Eli Lilly, Ind.) and either synthetic rat (Bachem, Torrance, Calif. Lot# ZG485) or synthetic human amylin (Bachem, Torrance, Calif. Lot# ZH144) as detailed below. Methods used to determine the nature and purity of rat and human amylin included quantitative amino acid analysis, gas phase amino acid sequencing, reverse phase HPLC and fast-atom-bombardment mass spectrometry. […] Incorporation of mercury into rat amylin may be a feature of many commercially available batches that have already been used in published studies. Since the peptide was bioactive, its action in muscle was expected to at least qualitatively mimic that of true rat amylin. The mercuric method of cyclization was not used in the synthesis of human amylin, which is found by electrospray ionization mass spectrometry and atomic absorption spectroscopy to be mercury-free. Muscles were assigned to different flasks so that the four muscle pieces from each animal were evenly distributed among the different assay conditions. The incubation media were gassed by gently blowing carbogen (95% O2, 5% CO2) over the surface while it was continuously agitated at 37° C. in an oscillating water bath. pH of gassed media at 37° C. was verified as being between 7.1 and 7.4. After a half-hour preincubation, 0.5 μCi of [U-^14 C]-glucose was added to each flask for a further 60 minutes. Each muscle piece was then rapidly removed, trimmed of tendons, blotted, frozen in liquid N2, weighed and then stored at […] for subsequent determination of ^14 C-glycogen. The incubation medium was also frozen for subsequent analysis. The concentration of human amylin present in the medium at the end of the incubation was determined by radioimmunoassay in surfactant-containing buffer. For both human and rat amylin, the actual mass added to the incubation medium was determined by quantitative amino-acid analysis. Each frozen muscle specimen was placed in a vial with 1 mL 60% potassium hydroxide (wt/vol) and digested at 70° C. for 45 minutes under intermittent vigorous agitation. Dissolved glycogen was precipitated onto the walls of the vial by addition of 3 mL absolute ethanol and overnight cooling at -20° C. After centrifugation for 30 minutes at 2000 x-- g, the supernatant was gently aspirated, the glycogen was again washed with ethanol and centrifuged, the ethanol aspirated and the precipitate dried under vacuum. It was important to evaporate all ethanol to avoid quenching during scintillation counting. The remaining glycogen was redissolved in 1 mL water and 4 mL scintillation fluid and counted for ^14 C. […]

[1] = test system: streptozotocin-diabetic rats; assay: Liver glycogen in insulin-treated streptozotocin diabetic rats, daily s.c. amylin replacement; type: in vivo, rat; conditions: STZ diabetic rats, insulin replacement only
Protocol: There were 68 male Harlan Sprague Dawley rats (mass 301±3 g) in 8 treatment groups. Animals were housed at 22.7±0.8° C. in a 12:12 hour light:dark cycle (experiments being performed during the light cycle) and fed and watered ad libitum (Diet LM-485, Teklad, Madison, Wis.). The rats were sacrificed for harvesting of livers 4 to 5 hours into the light cycle.
Animals were injected with streptozotocin (Sigma Chemical Company, St Louis, Mo.: Sigma 50130) dissolved in water in a dose of 65 mg/kg into the lateral tail vein. […] Maintaining diabetic rats in this metabolic state optimizes survival. Following one week of established diabetes, animals received once daily s.c. injections of amylin vehicle (water for injection) for 5 days given at the time of the insulin injection.
These animals were treated identically to those in group 1 except that the daily subcutaneous injection contained 3 μg (n=5); 10 μg (n=12); 30 μg (n=5); 100 μg (n=5) or 300 μg (n=5) of rat amylin (Bachem lot# WG485^2/). The bioactivity of the peptide used in these experiments was first verified by bioassay, using inhibition of insulin-stimulated radioglucose incorporation into glycogen in the isolated stripped rat soleus muscle. […] The insulin dose in each of the groups of diabetic animals averaged 1.67 U/animal/day. There were no other observable differences in the required management of the different groups.
These animals were derived from the same stock and housed under the same conditions for the same time as those in groups 1-6, but were given no injections. 24 hours after the fifth daily injection of amylin or water (or an equivalent time after admission to the vivarium in the case of group 7 rats), the non-fasted rats were killed by decapitation and the livers immediately removed and frozen in liquid N2, weighed and stored for subsequent determination of glycogen concentration.
Whole livers were powdered while frozen. Approximately 200 mg of powder was further homogenized in 1.0 mL of 0.6M perchloric acid to denature enzymes. 200 μL of the homogenate was neutralized with 0.5 volumes of 1.0M KHCO3 in either of two acetate buffer solutions, one containing 2.0 mL of 200 mM acetate (pH4.8), the other containing the same but with 18.5 U/mL of amyloglucosidase (EC5 3.2.1.3, from Aspergillus nicer, Sigma A3423, Sigma Chemical Company, St Louis, Mo.) added. Following at least 20 minutes incubation at 23° C., the supernatants were assayed for glucose in an analyzer using D-glucose oxidase immobilized enzyme chemistry (Analyzer model 2300-STAT, YSI, Yellow Springs, Ohio). Purified rabbit liver glycogen (Sigma G8876) used as a standard indicated 98±4% recovery of dissolved glycogen and linearity within the range of observed liver glycogen concentrations (r=0.9994). All reagents were of analytical grade or better.
Statistical comparisons were by Student's t-test routines contained in the SYSTAT system (Systat, Evanston, Ill.). All results are reported as means ± standard error of the mean.

[2] = test system: patients with juvenile-onset diabetes; assay: 14-day clinical study: adverse events; type: in vivo, human
Excerpt: In a 14-day double-blind, placebo controlled clinical study, for example, patients with juvenile-onset diabetes who continued their usual insulin therapy and self-injected tripro-amylin three times daily had lower average blood glucose levels after a test meal than did patients who received insulin and placebo. […] See also Table 2 below. […] These thrice-daily doses of tripro-amylin reflect per day dosages of, respectively, 90, 300, and 900 micrograms per patient. For a patient of average weight, about 70 kg, these reflect doses of 1.3 μg/kg/day, 4.3 μg/kg/day, and 12.9 μg/kg/day. An average per day insulin dose is about 50 units, or 2000 micrograms.
The only adverse events which led a limited number of patients to discontinue the study were gastrointestinal side effects, mainly nausea, which were more frequent only in those patients receiving higher doses of drug. About 20% of patients in the mid- and high-dose groups who reported nausea also experienced vomiting on one or more occasions.

[3] = test system: patients with juvenile-onset diabetes; assay: 14-day clinical study: insulin challenge to induce hypoglycemia; type: in vivo, human; conditions: after overnight fast, after 14 days of therapy
Excerpt: Following an overnight fast, patients in the 14-day study were challenged with insulin twice: prior to the start of dosing, and after 14 days of placebo or tripro-amylin therapy. The insulin challenge was designed to pharmacologically induce hypoglycemia in a controlled and reproducible manner.

[4] = 30 micrograms 3 times daily, 18 patients starting study
[5] = 100 micrograms 3 times daily, 23 patients starting study
[6] = 300 micrograms 3 times daily, 21 patients starting study

In the case of “insulin: recombinant human insulin (Humulin-R, Eli Lilly) in soleus assay; Humulin-Ultralente for daily treatment of diabetic rats”, the “Insulin dose response: Maximal response, Mean” value (from here on “Insulin dose response”) (rat soleus muscle; [amylin] 0 nM (nominal)) is reported as 4.09 μmol/g wet tissue/hr, the EC50 (rat soleus muscle; [amylin] 0 nM (nominal), read-out: Insulin dose response: EC50, Mean ± log SE (converted)) is reported as 1.16 ± 0.1 nM and the “Insulin dose response” value (rat soleus muscle; [amylin] 3 nM (nominal)) is reported as 3.45 μmol/g wet tissue/hr. The EC50 (rat soleus muscle; [amylin] 3 nM (nominal), read-out: Insulin dose response: EC50, Mean ± log SE (converted)) was 0.78 ± 0.12 nM, the “Insulin dose response” value (rat soleus muscle; [amylin] 10 nM (nominal)) was 3.12 μmol/g wet tissue/hr and the EC50 (rat soleus muscle; [amylin] 10 nM (nominal), read-out: Insulin dose response: EC50, Mean ± log SE (converted)) was 1.52 ± 0.15 nM. The “Insulin dose response” value (rat soleus muscle; [amylin] 30 nM (nominal)) was 2.13 μmol/g wet tissue/hr, the EC50 (rat soleus muscle; [amylin] 30 nM (nominal), read-out: Insulin dose response: EC50, Mean ± log SE (converted)) was 1.33 ± 0.2 nM and the “Insulin dose response” value (rat soleus muscle; [amylin] 100 nM (nominal)) was 1.15 μmol/g wet tissue/hr. The “Insulin dose response” value (rat soleus muscle; [amylin] 300 nM (nominal)) was 0.93 μmol/g wet tissue/hr, the EC50 (rat soleus muscle; absence of amylin, pooled from 7 assays, ±0.07 log units, read-out: EC50 of the insulin response) was 1.05 nM and the “increment in rate of glycogen labelling” value (rat soleus muscle; insulin dose response in absence of amylin, pooled from 7 assays) was 3.7 fold. The “decrease in liver glycogen compared to normal rats” value ([1]; fed state) was about 35% and the liver glycogen concentration ([1]; normal rats 8.6 mg/g) was 5.6 mg/g.
`CC[C@H](C)[C@H](NC(=O)[C@@H]1CCCN1C(=O)CNC(=O)[C@H](Cc1ccccc1)NC(=O)[C@H](CC(N)=O)NC(=O)[C@H](CC(N)=O)NC(=O)[C@H](CO)NC(=O)[C@H](CO)NC(=O)[C@H](Cc1c[nH]cn1)NC(=O)[C@@H](NC(=O)[C@H](CC(C)C)NC(=O)[C@H](Cc1ccccc1)NC(=O)[C@H](CC(N)=O)NC(=O)[C@H](C)NC(=O)[C@H](CC(C)C)NC(=O)[C@H](CCCNC(=N)N)NC(=O)[C@H](CCC(N)=O)NC(=O)[C@@H](NC(=O)[C@H](C)NC(=O)[C@@H]1CSSC[C@H](NC(=O)[C@@H](N)CCCCN)C(=O)N[C@@H](CC(N)=O)C(=O)N[C@@H]([C@@H](C)O)C(=O)N[C@@H](C)C(=O)N[C@@H]([C@@H](C)O)C(=O)N1)[C@@H](C)O)C(C)C)C(=O)N[C@@H](CC(C)C)C(=O)N1CCC[C@H]1C(=O)N1CCC[C@H]1C(=O)N[C@H](C(=O)N[C@@H](CC(N)=O)C(=O)N[C@H](C(=O)NCC(=O)N[C@@H](CO)C(=O)N[C@@H](CC(N)=O)C(=O)N[C@H](C(=O)N[C@@H](Cc1ccc(O)cc1)C(N)=O)[C@@H](C)O)C(C)C)[C@@H](C)O` [tripro-amylin, ^25,28,29 Pro-human-amylin] was tested, and the “side effect profile, measures of safety” value ([2]; 14-day tests) was “all measures of safety were satisfactory”, the “Patients reporting any gastrointestinal symptoms” value [2, 4] was 5 and the “Patients reporting nausea for more than 7 days” value (shortened to “Patients reporting nausea”) [2, 4] was 1. For the same compound, the “Patients reporting other events resulting in early discontinuation” value [2, 4] was 0, the “Patients who withdrew from the study with nausea” value (“Patients who withdrew” for short) [2, 4] was 1 and the “Patients reporting any gastrointestinal symptoms” value [2, 5] was 13. For the same compound, the “Patients reporting nausea” value [2, 5] was 8, the “Patients reporting other events resulting in early discontinuation” value [2, 5] was 0 and the “Patients who withdrew” value [2, 5] was 1. For the same compound, the “Patients reporting any gastrointestinal symptoms” value [2, 6] was 20, the “Patients reporting nausea” value [2, 6] was 11 and the “Patients reporting other events resulting in early discontinuation” value [2, 6] was 0. For the same compound, the “Patients who withdrew” value [2, 6] was 8, the “patients who reported nausea and also experienced vomiting on one or more occasions” value ([2]; mid- and high-dose groups) was “About 20%” and the “glucose response to insulin challenge compared to placebo group” value [3] was “did not measurably alter the glucose reponse”.
With `CC[C@H](C)[C@H](NC(=O)[C@H](C)NC(=O)CNC(=O)[C@H](Cc1ccccc1)NC(=O)[C@H](CC(N)=O)NC(=O)[C@H](CC(N)=O)NC(=O)[C@H](CO)NC(=O)[C@H](CO)NC(=O)[C@H](Cc1c[nH]cn1)NC(=O)[C@@H](NC(=O)[C@H](CC(C)C)NC(=O)[C@H](Cc1ccccc1)NC(=O)[C@H](CC(N)=O)NC(=O)[C@H](C)NC(=O)[C@H](CC(C)C)NC(=O)[C@H](CCCNC(=N)N)NC(=O)[C@H](CCC(N)=O)NC(=O)[C@@H](NC(=O)[C@H](C)NC(=O)[C@@H]1CSSC[C@H](NC(=O)[C@@H](N)CCCCN)C(=O)N[C@@H](CC(N)=O)C(=O)N[C@@H]([C@@H](C)O)C(=O)N[C@@H](C)C(=O)N[C@@H]([C@@H](C)O)C(=O)N1)[C@@H](C)O)C(C)C)C(=O)N[C@@H](CC(C)C)C(=O)N[C@@H](CO)C(=O)N[C@@H](CO)C(=O)N[C@H](C(=O)N[C@@H](CC(N)=O)C(=O)N[C@H](C(=O)NCC(=O)N[C@@H](CO)C(=O)N[C@@H](CC(N)=O)C(=O)N[C@H](C(=O)N[C@@H](Cc1ccc(O)cc1)C(N)=O)[C@@H](C)O)C(C)C)[C@@H](C)O` [human amylin] the EC50 (rat soleus muscle; 4 h) was 0.438 nM.
